Experiments:
S. haemolyticus 114126 = experiment: BCT test (bacterial contact time), 120 s, log reduction / effect fraction; CI by Compusyn; type: cell-based; conditions: Staphylococcus haemolyticus, 114126, 2 min, contact 120 s, 25% EtOH; for log reduction at 0.1 % strength: dose 0.1% w/v; for log reduction at 0.125 % strength: dose 0.125% w/v; for log reduction at 0.15 % strength: dose 0.15% w/v; for log reduction at 0.175 % strength: dose 0.175% w/v, read-out: Log reduction; for log reduction at 0.2 % strength: dose 0.2% w/v
Summary of the method: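 S. haemolyticus 114126 (skin isolate), grown to OD600 1-2 in BHI-TW80 and resuspended at 1-5×10^8 CFU/mL, was mixed 1:1 with ethanolic perfume compositions or ethanol alone for 45, 60 or 120 s. Viable counts came from serial-dilution regrowth (37 °C, turbidity OD600), giving log reduction versus ethanol control; CI was computed from concentration–effect fraction pairs.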

E. coli ATCC 10536 = experiment: BCT test (bacterial contact time), 45 s, log reduction / effect fraction; CI by Compusyn; type: cell-based, Escherichia coli; conditions: Escherichia coli, ATCC10536, 45 s
Summary of the method: (§1)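 Perfume ingredients, alone or combined, in ethanol were mixed 1:1 with ~1×10^8 CFU/mL log-phase bacteria in TSB for the stated contact time. Survivors were estimated by serial dilution and OD600 growth at 37 °C; log reduction versus ethanol control. CI from effect fractions via Compusyn (<0.9 synergy, >1.0 antagonism).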

S. aureus ATCC 6538 = experiment: BCT test (bacterial contact time), 60 s, log reduction / effect fraction; CI by Compusyn; type: cell-based, Staphylococcus aureus; conditions: Staphylococcus aureus, ATCC6538, 1 min, 60 s, in 25% EtOH; for log reduction at 0.05 % strength: dose 0.050 % w/v; for log reduction at 0.075 % strength: dose 0.075 % w/v; for log reduction at 0.1 % strength: dose 0.100 % w/v; for log reduction at 0.125 % strength: dose 0.125 % w/v; for log reduction at 0.15 % strength: dose 0.150 % w/v, read-out: Log reduction
Summary of the method: as §1

[1] = system: Pseudomonas aeruginosa ATCC 15442; experiment: as above; type: cell-based; conditions: Pseudomonas aeruginosa, ATCC15442, 1 min, BCT 60 s, in 25% EtOH; for log reduction at 0.05 % strength: Dose 0.05 % w/v; for log reduction at 0.06 % strength: Dose 0.06 % w/v; for log reduction at 0.07 % strength: Dose 0.07 % w/v; for log reduction at 0.08 % strength: Dose 0.08 % w/v; for log reduction at 0.1 % strength: Dose 0.1 % w/v
Summary of the method: as §1

[2] = system: Salmonella enterica ATCC 10708; experiment: as above; type: cell-based; conditions: Salmonella enterica, ATCC10708, 1 min, BCT 60 s, in 25% EtOH; for log reduction at 0.04 % strength: Dose 0.04 % w/v; for log reduction at 0.05 % strength: Dose 0.05 % w/v, read-out: Log reduction; for log reduction at 0.06 % strength: Dose 0.06 % w/v
Summary of the method: as §1

[3] = dose 0.05% w/v, contact 45 s, 20% EtOH
[4] = dose 0.07% w/v, contact 45 s, 20% EtOH
[5] = dose 0.08% w/v, contact 45 s, 20% EtOH
[6] = dose 0.09% w/v, contact 45 s, 20% EtOH

Row | SMILES | log reduction at 0.1 % strength (S. haemolyticus 114126) | log reduction at 0.125 % strength (S. haemolyticus 114126) | log reduction at 0.15 % strength (S. haemolyticus 114126) | log reduction at 0.175 % strength (S. haemolyticus 114126) | log reduction at 0.2 % strength (S. haemolyticus 114126) | log reduction at 0.05 % strength (E. coli ATCC 10536; [3]) | log reduction at 0.07 % strength (E. coli ATCC 10536; [4]) | log reduction at 0.08 % strength (E. coli ATCC 10536; [5]) | log reduction at 0.09 % strength (E. coli ATCC 10536; [6]) | log reduction at 0.05 % strength (S. aureus ATCC 6538) | log reduction at 0.075 % strength (S. aureus ATCC 6538) | log reduction at 0.1 % strength (S. aureus ATCC 6538) | log reduction at 0.125 % strength (S. aureus ATCC 6538) | log reduction at 0.15 % strength (S. aureus ATCC 6538) | log reduction at 0.05 % strength [1] | log reduction at 0.06 % strength [1] | log reduction at 0.07 % strength [1] | log reduction at 0.08 % strength [1] | log reduction at 0.1 % strength [1] | log reduction at 0.04 % strength [2] | other results
1 | C=C(C)[C@@H]1CC=C(CO)CC1 [Perycorolle, (S)-(−)-(4-Isopropenyl-1-cyclohexenyl)methanol] | -0.2 | 0.4 | 1.9 | 6.4 | 7.2 | 0 | 1.2 | 3.7 | 6 | 0.2 | 1.6 | 5.1 | 7.3 | 7.3 | 1.8 | 3.7 | 5.1 | 7.1 | 7.5 | 0 | log reduction at 0.1 % strength (E. coli ATCC 10536; dose 0.1% w/v, contact 45 s, 20% EtOH, read-out: Log reduction): 7.4; log reduction at 0.05 % strength [2]: 0.3; log reduction at 0.06 % strength [2]: 0.9; log reduction at 0.07 % strength ([2]; Dose 0.07 % w/v): 2.2; log reduction at 0.08 % strength ([2]; Dose 0.080 % w/v): 5.2
2 | CC(CCO)CCc1ccccc1 (stereo not drawn) [Phenylhexanol, 3-methyl-5-phenyl-1-pentanol] | 1.2 | 3.9 | 6.1 | 6.9 | 7.3 | 7.2 |  |  |  | 1 |  |  |  |  | 3.7 | 5.3 | 7.1 | 7.5 |  |  | log reduction at 0.02 % strength (E. coli ATCC 10536; dose 0.02% w/v, contact 45 s, 20% EtOH): 0; log reduction at 0.03 % strength (E. coli ATCC 10536; dose 0.03% w/v, contact 45 s, 20% EtOH): 0; log reduction at 0.035 % strength (E. coli ATCC 10536; dose 0.035% w/v, contact 45 s, 20% EtOH): 1.1; log reduction at 0.04 % strength (E. coli ATCC 10536; dose 0.04% w/v, contact 45 s, 20% EtOH): 2.4; log reduction at 0.06 % strength (S. aureus ATCC 6538; dose 0.060 % w/v): 3.3; log reduction at 0.07 % strength (S. aureus ATCC 6538; dose 0.070 % w/v): 6.7; log reduction at 0.08 % strength (S. aureus ATCC 6538; dose 0.080 % w/v): 7; log reduction at 0.09 % strength (S. aureus ATCC 6538; dose 0.090 % w/v): 7.5; log reduction at 0.045 % strength ([2]; Dose 0.045 % w/v): 7.9
3 | CC(C)=CCC/C(C)=C\CO [Nerol, (Z)-3,7-dimethyl-2,6-octadien-1-ol] | 1.4 | 4 | 6.2 | 7.4 |  | 0.1 | 7 | 7.4 | 7.4 |  | 3.2 | 7 | 7.3 | 7.5 | 3.6 |  |  |  | 7.4 | 2.2 | log reduction at 0.05 % strength (S. haemolyticus 114126; dose 0.05% w/v): 0.1; log reduction at 0.05 % strength (E. coli ATCC 10536; dose 0.050 % w/v, 45 s, in 20% EtOH): 1.1; log reduction at 0.06 % strength (E. coli ATCC 10536; dose 0.060 % w/v, 45 s, in 20% EtOH): 3.2; log reduction at 0.06 % strength (E. coli ATCC 10536; dose 0.06% w/v, contact 45 s, 20% EtOH): 3.2; log reduction at 0.07 % strength (E. coli ATCC 10536; dose 0.070 % w/v, 45 s, in 20% EtOH): 6.7; log reduction at 0.08 % strength (E. coli ATCC 10536; dose 0.080 % w/v, 45 s, in 20% EtOH): 7.3; log reduction at 0.09 % strength (E. coli ATCC 10536; dose 0.090 % w/v, 45 s, in 20% EtOH): 7.3; log reduction at 0.0625 % strength (S. aureus ATCC 6538; dose 0.0625 % w/v): 1.3; log reduction at 0.025 % strength ([1]; Dose 0.025 % w/v): 0.4; log reduction at 0.0625 % strength ([1]; Dose 0.0625 % w/v): 5.6; log reduction at 0.075 % strength ([1]; Dose 0.075 % w/v): 7.4; log reduction at 0.01 % strength ([2]; Dose 0.01 % w/v): 0; log reduction at 0.03 % strength ([2]; Dose 0.03 % w/v): 0.7; log reduction at 0.05 % strength [2]: 5.6; log reduction at 0.06 % strength [2]: 7.3

Reference: patent publication US12419305B2, “Antimicrobial compositions” (Firmenich SA, priority 2018, dated 2025)
